Broadly, the GI50 is the concentration that inhibits growth by half. In general, IC50 refers to the concentration that gives 50% inhibition.

We go through 2 molecules from US8816095B2, “Na channels, disease, and related assays and compositions” (Georgetown University, priority 2008, dated 2014).

In one assay the test system is site 2 of the VGSC. Briefly: [3H]-BTX-B displacement assay at site 2. It counts as binding, rat. As to conditions: for % [3H]-BTX Inhibition (40 μM) / % [3H]-BTX Displacement (40 μm): rat brain synaptoneurosomes; for % [3H]-BTX Inhibition (40 μM): Table 9; for % [3H]-BTX Displacement (40 μm): Table 13.
For another assay, the system named is human prostate tissue. Briefly: Staining of human prostate paraffin embedded tissue slices. As to conditions: 100 μM. On the procedure: The binding and localization of compound 26 in prostate and prostate cancer tissue was studied. Human prostate paraffin embedded tissue slices were stained with 100 μM of compound 26 and dansyl amine.
Another assay has as its target T1, human Nav1.2 (Homo sapiens, UniProt Q99250).
T1 construct: host or cells: HEK
Briefly: hNav1.2 functional block, whole-cell patch clamp. It counts as cell-based. The procedure:
Of the 20 analogs tested, six had [^3H]-BTX displacement characteristics much greater then that of phenyloin (Table 7), see Schemes 5, 6, 7 and 8 for the chemical synthesis and structure of the tested compounds. Compound 26, having the greatest [^3H]-BTX displacement at 86% ([…]), was further tested for VGSC functional blocking ability in HEK cells stably expressing Nav1.2 (Table 8).
In addition the functional blocking ability of 9 was tested after site two affinities was confirmed. The potential reason for this increased blocking ability stems from the dansyl addition in a hydrophobically receptive region of the binding site in the VGSC (Anderson, J. D., et al. Mol. Cancer. Ther. 2003, 2, 1149-1154; Lenkowski, P et al. Neuropharmacology, 2007, 52, 1044-1054). This enhanced potency could be due to the dansyl substituent interacting with L1465 and 11469, located in S6 of domain III in the binding site, which are believed to be the source of hydrophobic receptivity 17. The ability to inhibit VGSC currents is an important property and represents functional blocking. The ability of CDPNS to inhibit sodium channel currents was assessed at 10 and 100 μM against human Nav1.2 by patch clamp assay (FIG. 10).
Human embryonic kidney cells (HEK) cells stably expressing human Nav1.2 were a kind gift from Dr. H. A. Hartmann (University of Baltimore, Md., USA) and were grown in DMEM/F12 media (Invitrogen, Corp, CA, USA) supplemented with 10% fetal bovine serum, penicillin (100 U/ml), streptomycin (100 μg/ml) and G418 (500 μg/ml; Sigma, Mo., USA). Cells were grown in a humidified atmosphere of 5% CO2 and 95% air at 37° C.
Sodium currents were recorded using the whole-cell configuration of the patch clamp recording technique with an Axopatch 200 amplifier (Axon Instruments, Foster City, Calif.). All voltage protocols were applied using pCLAMP 9 software (Axon, USA) and a Digidata 1322A (Axon, USA). Currents were amplified and low pass filtered (2 kHz) and sampled at 33 kHz. Borosilicate glass pipettes were pulled using a Brown-Flaming puller (model P87, Sutter Instruments Co, Novato, Calif.) and heat polished to produce electrode resistances of 0.5-1.5 MΩ when filled with the following electrode solution (in mM); CsCl 130, MgCl2 1, MgATP 5, BAPTA 10, HEPES 5 (pH adjusted to 7.4 with CsOH). Cells were plated on glass coverslips and superfused with solution containing the following composition; (in mM) NaCl 130, KCl 4, CaCl2 1, MgCl2 5, HEPES 5, and glucose 5 (pH adjusted to 7.4 with NaOH).
Compound 26 was prepared as 100 mM stock solutions in dimethyl sulfoxide (DMSO) and diluted to desired concentration in perfusion solution. The maximum DMSO concentration used was 0.1% and had no effect on current amplitude. All experiments were performed at room temperature (20-22° C.). After establishing whole-cell, a minimum series resistance compensation of 75% was applied. Sodium currents were elicited by a depolarizing step from a holding potential of −100 mV to +10 mV for a duration of 25 ms at 15 s intervals. Compound 26 was applied after a 3 min control period and continued until a steady state current amplitude was observed. All data represent percentage mean block±standard error of the mean (S.E.M.).
(In general: Patch clamp records ionic current or voltage across a cell membrane.)

Assay [1] relates to PC-3 cells. Briefly: PC-3 cell growth inhibition assay (WST-8). The format is cell-based. The settings on record: Homo sapiens, WST-8, 48 hours. On the procedure: The effect of compound 2 was studied on the proliferation of human androgen independent prostate cancer (PC-3) cells, using a cell viability assay with WST-8. […].
PC-3 cells were added to the wells of a 96 well plate at 7500 cells per well in 100 uL of RPMI medium with 10% serum and allowed to plate down overnight. The medium was then removed and replaced with serum free medium containing the appropriate concentration of drug. DMSO concentration was kept below 1%. At this time WST-8 cell counting reagent was added to the control (T=0) wells and allowed to incubate for 2 hours and the absorbance was read at 450 nm to determine the starting number of cells per well. The plates were incubated for 48 hours, the medium was removed and the wells were washed with 100 uL of PBS. The PBS was removed that the wells were filled with 110 uL of serum free RPMI media containing the WST-8 reagent. After two hours of incubation, the plates absorbance was read at 450 nm and normalized to the control value.
(In general: Tetrazolium assays rely on reduction of a dye to a coloured formazan, in cell work by metabolically active cells.)

The test system of assay [2] is PC-3 cells. The assay is described as follows: PC-3 MTT cell viability assay. As to conditions: Homo sapiens, read-out: GI50 ± SEM (10 μM), DPH and JDA-3-135 previously determined. It counts as cell-based. From the text:
Following the determination that compound CDPNS inhibits the VGSCs that are present in androgen independent PC-3 cells, a 3-(4,5-Dimethylthiazol-2-yl)-2,5-diphenyltetrazolium bromide (MTT) cell viability assay was utilized to measure the ability of compound CDPNS to inhibit PC-3 cell growth via VGSC blockade. In this experiment data yielded from CDPNS was compared to previously determined DPH and JDA-3-135 antiproliferation data (Table 10).

The next assay deals with hNav1.2 (Homo sapiens, UniProt Q99250). The settings on record: whole-cell patch clamp, hNav1.2 expressing HEK cells; read-out: hNav1.2 electrophysiology IC50; cited from earlier work.
Sequence of hNav1.2 (Q99250 whole entry): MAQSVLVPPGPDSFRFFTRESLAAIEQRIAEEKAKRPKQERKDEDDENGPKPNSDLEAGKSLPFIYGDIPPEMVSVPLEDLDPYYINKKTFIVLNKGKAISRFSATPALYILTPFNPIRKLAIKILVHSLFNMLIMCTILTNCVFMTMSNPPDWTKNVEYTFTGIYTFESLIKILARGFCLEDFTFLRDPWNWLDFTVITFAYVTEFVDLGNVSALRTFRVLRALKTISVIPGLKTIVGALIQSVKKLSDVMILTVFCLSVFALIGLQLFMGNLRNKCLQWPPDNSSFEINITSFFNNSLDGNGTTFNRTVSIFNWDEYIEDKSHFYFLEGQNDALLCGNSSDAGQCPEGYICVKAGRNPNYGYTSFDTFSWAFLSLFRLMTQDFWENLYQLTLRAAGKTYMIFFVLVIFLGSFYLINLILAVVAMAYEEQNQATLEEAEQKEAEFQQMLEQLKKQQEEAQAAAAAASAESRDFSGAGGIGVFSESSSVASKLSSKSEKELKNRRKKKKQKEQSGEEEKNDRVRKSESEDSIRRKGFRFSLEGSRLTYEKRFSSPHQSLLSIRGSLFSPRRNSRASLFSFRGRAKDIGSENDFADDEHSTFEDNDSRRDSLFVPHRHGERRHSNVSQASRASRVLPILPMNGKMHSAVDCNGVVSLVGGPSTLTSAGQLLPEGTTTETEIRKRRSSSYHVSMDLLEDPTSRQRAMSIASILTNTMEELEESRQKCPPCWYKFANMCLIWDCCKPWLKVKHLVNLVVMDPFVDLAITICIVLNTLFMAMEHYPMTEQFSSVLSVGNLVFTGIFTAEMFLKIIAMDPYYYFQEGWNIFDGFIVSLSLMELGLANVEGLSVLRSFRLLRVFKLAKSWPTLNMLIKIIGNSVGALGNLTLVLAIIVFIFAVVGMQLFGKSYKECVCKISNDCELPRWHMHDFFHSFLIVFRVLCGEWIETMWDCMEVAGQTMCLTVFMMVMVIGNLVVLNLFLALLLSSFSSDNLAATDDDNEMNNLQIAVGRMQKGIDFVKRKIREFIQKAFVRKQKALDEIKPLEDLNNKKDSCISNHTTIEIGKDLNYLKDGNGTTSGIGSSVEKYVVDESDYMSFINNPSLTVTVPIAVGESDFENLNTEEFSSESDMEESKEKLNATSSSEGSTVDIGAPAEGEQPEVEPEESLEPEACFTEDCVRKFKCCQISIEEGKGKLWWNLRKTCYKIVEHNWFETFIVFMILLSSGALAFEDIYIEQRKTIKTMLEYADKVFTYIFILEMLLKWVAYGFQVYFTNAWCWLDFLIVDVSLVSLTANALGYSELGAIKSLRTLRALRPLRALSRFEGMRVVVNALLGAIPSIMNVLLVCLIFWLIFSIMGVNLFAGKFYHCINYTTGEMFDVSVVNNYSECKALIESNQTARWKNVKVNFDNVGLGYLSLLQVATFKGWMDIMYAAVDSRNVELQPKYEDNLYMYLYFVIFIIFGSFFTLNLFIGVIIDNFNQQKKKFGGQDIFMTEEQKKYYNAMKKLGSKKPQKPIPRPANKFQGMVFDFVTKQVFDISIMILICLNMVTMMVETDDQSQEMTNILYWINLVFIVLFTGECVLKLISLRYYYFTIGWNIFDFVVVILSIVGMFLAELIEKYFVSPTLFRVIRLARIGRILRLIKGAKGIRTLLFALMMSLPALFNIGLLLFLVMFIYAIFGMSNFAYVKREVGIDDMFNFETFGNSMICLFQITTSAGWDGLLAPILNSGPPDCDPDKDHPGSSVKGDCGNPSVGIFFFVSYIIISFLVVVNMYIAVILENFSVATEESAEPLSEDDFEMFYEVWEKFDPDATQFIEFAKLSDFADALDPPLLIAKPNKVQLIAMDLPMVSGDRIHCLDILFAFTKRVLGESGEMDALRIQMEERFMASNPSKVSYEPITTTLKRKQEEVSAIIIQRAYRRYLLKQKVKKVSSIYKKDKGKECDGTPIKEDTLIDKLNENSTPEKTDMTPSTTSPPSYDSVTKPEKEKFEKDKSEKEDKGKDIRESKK
The mark [3] stands for this setting: read-out: GI50 in PC3 prostate cancer cells.

T1 sequence (Q99250 whole entry): as above

Turning to `CN(C)c1cccc2c(S(=O)(=O)NCCCCCC3(c4cccc(Cl)c4)NC(=O)NC3=O)cccc12` (centres unmarked) [Compound 26, N-(5-(4-(3-chlorophenyl)-2,5-dioxoimidazolidin-4-yl)pentyl)-5-(dimethylamino)naphthalene-1-sulfonamide], the “% [3H]-BTX Inhibition (40 μM)” value with site 2 of the VGSC was found to be 86.4%. For the same molecule, the “% [3H]-BTX Displacement (40 μm)” value with site 2 of the VGSC was 86.4%. Also, in the assay with site 2 of the VGSC (Screen at 40 μM, 2 replicates, referenced to Aconitine), the “[3H]-BTX-B Binding Data, Displacement %” value is on record as 86%. Moreover, the “binding to human prostate tissue (microscopy)” value in the assay on human prostate tissue is on record as “visible due to binding”. Further, the “% hNaV 1.2 Functional Block (10 μM)” value on human Nav1.2 (Table 8) was 58.9±4.1%; on human Nav1.2 (Table 8, listed as CDPNS), 58.9±4.15%; on human Nav1.2 (Table 9), 58.9 ± 4.1%; at human Nav1.2 (Table 9, listed as CDPNS), 58.9±4.1%. The values for the GI50 in the assay on PC-3 cells [1] (setting [3]), in the assay on PC-3 cells [1] (read-out: PC3 GI50 (μg)) and in the assay on PC-3 cells [2] were 9.95 ± 0.07 µM, 9.95 ± 0.07 µM and 36 µM, respectively.

Turning to `CCCCCCCC1(c2cccc(Cl)c2)NC(=O)NC1=O` (centres unmarked) [JDA-3-135], in the assay on site 2 of the VGSC, the “% [3H]-BTX Inhibition (40 μM)” value was found to be 69.6%. Besides, the “% [3H]-BTX Displacement (40 μm)” value in the assay on site 2 of the VGSC is 69.6%. The “% hNaV 1.2 Functional Block (10 μM)” value on human Nav1.2 (Table 8) and on human Nav1.2 (Table 9) was 30.5 ± 5.1% in each case. Besides, at human Nav1.2 (10 μm, Table 13), the “% Nav 1.2 Functional Block (10 μm)” value worked out at 30.5 ± 5.1%. Moreover, the GI50 was found to be 18.97 ± 0.04 µM in the assay with PC-3 cells [1] (setting [3]), 18.97 ± 0.04 µM in the assay on PC-3 cells [1] (read-out: PC3 GI50 (μg)) and 18.6 ± 1.5 µM in the assay with PC-3 cells [2]. Further, the IC50 on hNav1.2 is 13.9 µM.
